The NIST ThermoML archive (doi:10.1016/j.fluid.2009.09.005)
± gives the expanded uncertainty stated by the source.

Tests used:
[1] = Capillary rise
[2] = wn = mass fraction of the nth substance listed; settings: Capillary rise

Work on CC(F)F [1,1-difluoroethane] yielded a surface tension liquid-gas ([1]; 298.18 K) of 9.747 ± 0.4 mN/m, a surface tension liquid-gas ([1]; 303.23 K) of 9.062 ± 0.4 mN/m and a surface tension liquid-gas ([1]; 308.19 K) of 8.505 ± 0.4 mN/m. For the same compound, the surface tension liquid-gas ([1]; 313.13 K) was 7.731 ± 0.4 mN/m.
With CC(C)C [2-methylpropane] the surface tension liquid-gas ([1]; 313.17 K) was 8.28 ± 0.45 mN/m, the surface tension liquid-gas ([1]; 318.13 K) was 7.704 ± 0.45 mN/m and the surface tension liquid-gas ([1]; 323.16 K) was 7.182 ± 0.44 mN/m. The surface tension liquid-gas ([1]; 328.12 K) was 6.691 ± 0.44 mN/m and the surface tension liquid-gas ([1]; 328.13 K) was 6.669 ± 0.43 mN/m.
With FC(F)C(F)(F)F [pentafluoroethane] + CC(F)F the surface tension liquid-gas ([2]; 243.08 K, w1 = 0.2019) was 16.5 ± 0.4 mN/m, the surface tension liquid-gas ([2]; 243.16 K, w1 = 0.097) was 17 ± 0.4 mN/m and the surface tension liquid-gas ([2]; 243.22 K, w1 = 0.2996) was 15.6 ± 0.4 mN/m. For the same compound, the surface tension liquid-gas ([2]; 248.09 K, w1 = 0.2019) was 15.8 ± 0.4 mN/m, the surface tension liquid-gas ([2]; 248.12 K, w1 = 0.2996) was 15 ± 0.4 mN/m and the surface tension liquid-gas ([2]; 248.13 K, w1 = 0.097) was 16.2 ± 0.4 mN/m. It also gave a surface tension liquid-gas ([2]; 253.12 K, w1 = 0.2019) of 15.1 ± 0.4 mN/m, a surface tension liquid-gas ([2]; 253.13 K, w1 = 0.2996) of 14.3 ± 0.4 mN/m and a surface tension liquid-gas ([2]; 253.55 K, w1 = 0.097) of 15.3 ± 0.4 mN/m. The surface tension liquid-gas ([2]; 258.11 K, w1 = 0.097) was 14.6 ± 0.4 mN/m, the surface tension liquid-gas ([2]; 258.16 K, w1 = 0.2019) was 14.4 ± 0.4 mN/m and the surface tension liquid-gas ([2]; 258.16 K, w1 = 0.2996) was 13.7 ± 0.4 mN/m. The surface tension liquid-gas ([2]; 263.06 K, w1 = 0.097) was 13.9 ± 0.4 mN/m, the surface tension liquid-gas ([2]; 263.17 K, w1 = 0.2996) was 13 ± 0.4 mN/m and the surface tension liquid-gas ([2]; 263.19 K, w1 = 0.2019) was 13.5 ± 0.4 mN/m. For the same compound, the surface tension liquid-gas ([2]; 268.12 K, w1 = 0.097) was 13.3 ± 0.4 mN/m, the surface tension liquid-gas ([2]; 268.17 K, w1 = 0.2019) was 12.9 ± 0.4 mN/m and the surface tension liquid-gas ([2]; 268.18 K, w1 = 0.2996) was 12.2 ± 0.4 mN/m. It also gave a surface tension liquid-gas ([2]; 273.18 K, w1 = 0.097) of 12.5 ± 0.4 mN/m, a surface tension liquid-gas ([2]; 273.18 K, w1 = 0.2996) of 11.4 ± 0.4 mN/m and a surface tension liquid-gas ([2]; 273.19 K, w1 = 0.2019) of 12.2 ± 0.4 mN/m. For the same compound, the surface tension liquid-gas ([2]; 278.17 K, w1 = 0.2996) was 10.6 ± 0.4 mN/m, the surface tension liquid-gas ([2]; 278.18 K, w1 = 0.097) was 11.8 ± 0.4 mN/m and the surface tension liquid-gas ([2]; 278.42 K, w1 = 0.2019) was 11.4 ± 0.4 mN/m. It also gave a surface tension liquid-gas ([2]; 283.13 K, w1 = 0.097) of 11.2 ± 0.4 mN/m, a surface tension liquid-gas ([2]; 283.15 K, w1 = 0.2019) of 10.6 ± 0.4 mN/m and a surface tension liquid-gas ([2]; 283.17 K, w1 = 0.2996) of 10.1 ± 0.4 mN/m. The surface tension liquid-gas ([2]; 288.16 K, w1 = 0.2019) was 9.9 ± 0.4 mN/m, the surface tension liquid-gas ([2]; 288.17 K, w1 = 0.097) was 10.6 ± 0.4 mN/m and the surface tension liquid-gas ([2]; 288.18 K, w1 = 0.2996) was 9.5 ± 0.4 mN/m. The surface tension liquid-gas ([2]; 293.14 K, w1 = 0.2019) was 9.4 ± 0.4 mN/m, the surface tension liquid-gas ([2]; 293.17 K, w1 = 0.097) was 9.8 ± 0.4 mN/m and the surface tension liquid-gas ([2]; 293.18 K, w1 = 0.2996) was 8.7 ± 0.4 mN/m. The surface tension liquid-gas ([2]; 298.08 K, w1 = 0.2019) was 8.8 ± 0.4 mN/m, the surface tension liquid-gas ([2]; 298.1 K, w1 = 0.097) was 9.2 ± 0.4 mN/m and the surface tension liquid-gas ([2]; 298.11 K, w1 = 0.2996) was 8 ± 0.4 mN/m. For the same compound, the surface tension liquid-gas ([2]; 303.13 K, w1 = 0.2019) was 8 ± 0.4 mN/m, the surface tension liquid-gas ([2]; 303.17 K, w1 = 0.097) was 8.5 ± 0.4 mN/m and the surface tension liquid-gas ([2]; 303.18 K, w1 = 0.2996) was 7.4 ± 0.4 mN/m. It also gave a surface tension liquid-gas ([2]; 308.1 K, w1 = 0.097) of 7.9 ± 0.4 mN/m, a surface tension liquid-gas ([2]; 308.1 K, w1 = 0.2019) of 7.4 ± 0.4 mN/m and a surface tension liquid-gas ([2]; 308.12 K, w1 = 0.2996) of 6.7 ± 0.4 mN/m. It also gave a surface tension liquid-gas ([2]; 313.11 K, w1 = 0.2019) of 6.7 ± 0.4 mN/m, a surface tension liquid-gas ([2]; 313.16 K, w1 = 0.097) of 7.2 ± 0.4 mN/m and a surface tension liquid-gas ([2]; 313.19 K, w1 = 0.2996) of 6.1 ± 0.4 mN/m. For the same compound, the surface tension liquid-gas ([2]; 318.11 K, w1 = 0.2019) was 6.1 ± 0.4 mN/m, the surface tension liquid-gas ([2]; 318.12 K, w1 = 0.097) was 6.5 ± 0.4 mN/m and the surface tension liquid-gas ([2]; 318.16 K, w1 = 0.2996) was 5.5 ± 0.4 mN/m. It also gave a surface tension liquid-gas ([2]; 323.14 K, w1 = 0.2019) of 5.4 ± 0.4 mN/m, a surface tension liquid-gas ([2]; 323.16 K, w1 = 0.097) of 5.8 ± 0.4 mN/m and a surface tension liquid-gas ([2]; 323.17 K, w1 = 0.2996) of 5 ± 0.4 mN/m. It also gave a surface tension liquid-gas ([2]; 328.1 K, w1 = 0.2019) of 4.8 ± 0.4 mN/m, a surface tension liquid-gas ([2]; 328.11 K, w1 = 0.097) of 5.2 ± 0.4 mN/m and a surface tension liquid-gas ([2]; 328.16 K, w1 = 0.2996) of 4.3 ± 0.4 mN/m.
